Test system: human colon tumor xenograft model (HCT-8, thymidine kinase (TK)-/-)
Experiment: HCT-8 xenograft, NX1843 dose schedule study and combinations with 5-FU, NX211 and GW1843 (Table 27)
Assay type: in vivo, nude mice
Experimental: Female Nu/Nu mice (18-24 g, 10-14 weeks old) were obtained from Harlan Sprague Dawley, and housed in microisolator filtration racks and maintained with filtered acidified water and sterile lab chow ad libitum. […] Animals were allowed to acclimate to their new environment for 1 week prior to tumor cell implantation. Tumors were established by injecting harvested tumor cells in a single subcutaneous site on the flank of the mice in the axillary region. The tumors were grown until approximately 200+/−50 mm^3 in size. The animals were then sorted according to body weight, grouped four animals/cage, and tattooed on the tail for permanent identification. Groups consisting of 8 tumor-bearing mice each were administered weekly doses of experimental agents by IV bolus injection through the tail vein. Tumor volumes were determined with vernier caliper measurements taken at right angles using the formula, (L×W^2/2) and body weights, were collected twice weekly. Data was plotted as % change in body weight vs. time in days, and % tumor volume increase vs. days.
T=(mean) time in days for treated group to reach cutoff size (2 grams)
C=(mean) time in days for control group to reach cutoff size (2 grams)
WC is the mean tumor weight of control group at time x
Wt is mean tumor weight of treated group at time x
% Regression=100 (Wo−Wi)/Wo; where Wo is the mean tumor weight for treated group at the initiation of treatment and Wi=the mean tumor weight for that group at time some time x after treatment.
In addition to these dose groups the free drug was dosed at 100 mg/kg on days 1-5, and repeated for a second week.

O=c1[nH]cc(F)c(=O)[nH]1 [Lot 5-FU, 5-fluorourcil, reference compound]
% TGI (100 mg/kg, QD1, 8): 72% | Cures (100 mg/kg, QD1, 8): 0 | LCK (100 mg/kg, QD1, 8): 1.5 | % Regression day 22 (100 mg/kg, QD1, 8, day 22): 0% | log cell kill (LCK) (iv, NX1843 25 mg/kg d1,8, 15 mg/kg QD(1,3,5)×2 or 7.5 mg/kg QD(1-5)×2, GW1843 100 mg/kg d1-5 ×2, 5FU 100 mg/kg d1,8, NX211 6 mg/kg d1,8, combinations at same doses): 1.5
